Each block holds one compound with its values, some of them ahead of it.
Key:
Hsp90 = assay: Thermofluor assay, Hsp90; type: binding
Procedure: (§1) Thermofluor Assay: SYPRO orange (Molecular Probes, Eugene, Oreg.) was diluted 1:1000 in 25 mM HEPES, 5 mM MgCl2, 10 mM KCl (pH 7.5) and purified Hsp70i, Hsc70, Hsp70i C306, or Hsp90, was then added to a final dilution of 0.04 mg/ml. Where indicated 0.001% or 0.01% Triton X-100 (Sigma) was also added. The indicated compound or DMSO was then added at the specified concentration and each sample was added as 5 replicates to a 384 well plate (BioRad, Hercules, Calif.). A melt curve protocol (25° C. to 90° C., increasing 0.5° C. and a plate reading every 30 seconds) was run on a CFX384 Touch™ Real-Time PCR Detection System (BioRad). To determine the midpoint of the protein unfolding transition or Tm, GraphPad Prisim4 (La Jolla, Calif.) was used to normalize the melt curve and to calculate the first derivate of the melt curve, with the steepest point of the slope being the Tm.

Her2 and Akt = assay: Degradation assay (Western blot of client proteins); type: cell-based; conditions: compound alone
Procedure: Western Blotting: SDS-PAGE was carried out using Criterion™ Cell system using pre-casted 4-20% or 4-15% Criterion™ Tris-HCl gels (BioRad, Hercules, Calif.). For Western blotting gels were run at 200V for 1 hour using the PowerPac basic power supply (BioRad, Hercules, Calif.). Next, gels were transferred to nitrocellulose for blotting at 100V for 1 hour (Fisher Scientific, Waltham, Mass.). Nitrocellulose membranes were blocked with 5% dry non-fat milk in phosphate-buffered saline (PBS) with 0.01% Tween-20 for 1 hour at room temperature. Membranes were incubated with primary antibodies (1:1000 dilution) overnight at 4° C. The next day membranes were washed 3× in PBS-Tween, incubated for 1 hour at room temperature with secondary antibodies, and further washed 3× in PBS-Tween. ECL Plus Western blotting reagent (Pierce Biotechnology, Rockford, Ill.) was used to detect antibodies. GFP, Her2, Akt, Hsp70, Hsc70, Grp78, Grp75, and Hsp90 primary antibodies and all associated secondary antibodies were purchased from Cell Signaling Technology (Danvers, Mass.).
Degradation Assay: The specified cells were seeded overnight and then treated with the indicated concentration of compound for 24 hours. The cells were then harvested and subjected to analysis by Western blot.

MCF7 = assay: Cell proliferation, MCF7; type: cell-based
Procedure: (§2) Cell Proliferation: Cell proliferation was determined using a Hoechst stain (Sigma, St. Louis, Mo.) to quantify DNA. 5,000 cells of the designated cell line were plated in 96 well plates and treated the next day, designated as time point 0, with the indicated concentration of the specified compound maintained for the duration of the assay. At the indicated time points the media was removed and plated frozen at −80° C. Double distilled H2O was then added and the plates were incubated at 37° C. for 1 hour. After 1 hour the plates were frozen at −80° C. After freezing the plates were thawed and Hoechst stain was diluted 1:1000 in THE buffer (10 mM Tris, 2M NaCl, 1 mM Na2EDTA). The final fluorescence was measured on the Victor X2 plate reader at 355/460 nm, and cell proliferation was determined with the formula: % Cell Proliferation=100×(Sample fluorescence−background fluorescence)/(Control fluorescence−background fluorescence).

Hsp70i = Hsp70i (Homo sapiens, UniProt P0DMV8); assay: Thermofluor assay, purified Hsp70i; type: binding; parameters: Full length Hsp70 (black arrow) and tryptic fragments (blue arrows); His tag (cleaved yes); made in house; conditions: for effect on Tm of Hsp70i: compound alone; for increase of the Tm of Hsp70i: nucleotide alone, FIG. 4E/4G
Procedure: Protein Purification: Plasmids were provided for human HSPA1A, HSPA8, and HSPA1A C306D. Plasmids were transformed in Rosetta competent cells and single colonies were picked from streaked LB/ampicillin/chloramphenicol plates. Cultures were grown at 37° C. for 4-6 hours, were cooled to 15° C. and expression was induced overnight with 200 uM isopropyl 1-thio-β-D-galactopyranoside. Cells were pelleted and resuspended in Ni-lysis buffer (50 mM Na2HPO4, 300 mM NaCl, 10 mM Imidazole, 0.05% Tween-20) supplemented with Complete Mini protease inhibitor tablets (Roche, Mannheim, Germany) and […], and then sonicated. The cells were again pelleted and the supernatant was incubated with complete His-Tag purification resin (Roche, Mannheim, Germany) for 5 hours at 4° C. The resin was washed with Ni-wash buffer (50 mM Na2HPO4, 300 mM NaCl, 20 mM Imidazole, 0.05% Tween-20) and eluted with Ni-elution buffer (50 mM Na2HPO4, 300 mM NaCl, 250 mM Imidazole, 0.05% Tween-20). The elution was then incubated with tobacco etch virus protease overnight at 4° C. The following day the elution was incubated with the γ-phosphate ATP sepharose resin for 30 minutes at 4° C. Next the resin was washed with ATP-wash buffer (50 mMTris-HCl, 60 mM MgCl2, 60 mM KCl, 10 mM Citrate) supplemented with 1 mM DTT and then ATP-wash buffer supplemented with 2 mM ATP was added to the resin to elute the protein. The final elutions were concentrated in Amicon Ultra-15 Centrifugal Filter Units (EMD Millipore, Billerica, Mass.) and buffer exchanged into 25 mM HEPES, 5 mM MgCl2, 10 mM KCl (pH 7.5) and stored at −80° C. until use.
as §1

SkBr3 = assay: Cell proliferation, SkBr3; type: cell-based
Procedure: as §2

GFP-Hsp70i = molecular target: T1, GFP-Hsp70i (Homo sapiens, UniProt P0DMV8); assay: FLECS elution of GFP-Hsp70i from γ-phosphate-linked ATP resin; type: binding
T1 construct: host or cells: HEK 293T
Procedure: (§3) FLECS Screen: A pEGFP-tagged Hsp70i was (plasmid 15215, Addgene, Cambridge, Mass.) used in the FLECS assay and was originally cloned according to [Zeng et al. (2004). Hsp70 dynamics in vivo: effect of heat shock and protein aggregation. Journal of cell science 117, 4991-5000]. ATP used in the assay was purchased from Sigma (St. Louis, Mo.) and a 200 mM stock was prepared with low salt buffer (150 mM NaCl, 25 mM Tris, pH 7.5, 60 mM MgCl2). The γ-phosphate ATP sepharose was synthesized as previously described and stored in low salt buffer [Haystead et al. (1993). Gamma-phosphate-linked ATP-sepharose for the affinity purification of protein kinases. Rapid purification to homogeneity of skeletal muscle mitogen-activated protein kinase kinase. European journal of biochemistry/FEBS 214, 459-467]. FuGENE 6 transfection reagent (Roche, Mannheim, Germany) was used for transfection of GFP-Hsp70i into HEK 293T cells, following the manufacturer protocol. The transfection ensued for 48 hours, upon which time the cells were harvested and lysed in cell lysis buffer (150 mM NaCl, 50 mM Tris, pH 7.5, 1% Triton X-100, 1 mM EDTA, 1 mM DTT, and 1 tablet Complete Mini protease inhibitor (Roche)). Cell lysates were stored at −80° C. until further use. Upon binding the resin lysates were washed 3× with high stringency wash buffer (1 M NaCl, 25 mM Tris, pH 7.5, 60 mM MgCl2, 1 mM DTT) and 3× with low stringency wash buffer (150 mM NaCl, 25 mM Tris, pH 7.5, 60 mM MgCl2, 1 mM DTT). […]
Assembly of a focused library, consisting of 3379 purine like compounds, was described previously [Carlson et al. (2013). Fluorescence Linked Enzyme Chemoproteomic Strategy for Discovery of a Potent and Selective DAPK1 and ZIPK Inhibitor. […] The lysates were eluted from the filter plate onto a catch plate by centrifugation and the fluorescence of the eluates was measured. […] Next, the presence of GFP-Hsp70i in the eluates from the 197 primary hits was determined by Western blot. […]

[1] = system: Hsp70i, Hsc70, Grp78, Grp75, Hsp90; assay: Elution of HEK 293T cell lysate proteins from the ATP resin (silver stain, Western blot); type: binding; conditions: Western blot
Procedure: as §3, with “DTT). Next the lysates were transferred to 0.2 μm PVDF filter 96-well plate (Corning, Corning, N.Y.) sitting on top of a black flat-bottomed 96-well catch plate (Corning).” for “DTT).”
HS-72 specifically targets Hsp70i over other members of the Hsp70 superfamily. […] To more thoroughly determine the specificity of HS-72 for Hsp70i, the HEK 293T eluates were also analyzed for other Hsp70 family members Hsc70, Grp78, and Grp75, as well as Hsp90 by Western blot. […] The linker on the resin was cleaved using sodium dithionite and the samples were subjected to SDS-PAGE and analyzed by Western blot, silver stain, and mass spectrometry. […]

Chain of Hsp70i (P0DMV8 whole entry, the tested form may be a part): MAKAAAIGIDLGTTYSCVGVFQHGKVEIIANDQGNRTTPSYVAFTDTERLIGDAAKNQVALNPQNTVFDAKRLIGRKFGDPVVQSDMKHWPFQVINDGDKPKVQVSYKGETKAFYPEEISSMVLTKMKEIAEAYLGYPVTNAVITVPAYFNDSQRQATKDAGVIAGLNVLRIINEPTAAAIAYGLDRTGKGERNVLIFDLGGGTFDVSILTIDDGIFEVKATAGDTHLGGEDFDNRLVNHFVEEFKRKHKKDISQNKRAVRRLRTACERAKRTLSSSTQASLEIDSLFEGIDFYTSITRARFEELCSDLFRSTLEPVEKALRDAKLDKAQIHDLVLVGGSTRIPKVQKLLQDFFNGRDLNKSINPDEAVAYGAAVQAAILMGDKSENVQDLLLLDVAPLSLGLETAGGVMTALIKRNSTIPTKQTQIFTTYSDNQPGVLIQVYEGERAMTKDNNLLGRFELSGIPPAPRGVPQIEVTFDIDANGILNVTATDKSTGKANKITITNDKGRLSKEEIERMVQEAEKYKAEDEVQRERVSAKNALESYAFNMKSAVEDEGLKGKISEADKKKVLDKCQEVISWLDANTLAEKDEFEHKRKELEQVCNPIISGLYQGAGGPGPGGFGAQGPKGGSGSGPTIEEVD
T1 sequence (P0DMV8 whole entry): as the sequence (P0DMV8 whole entry, the tested form may be a part) above

SMILES: Cc1nn(-c2ccc(C(N)=O)c(N[C@H]3CC[C@H](O)CC3)c2)c2c1C(=O)CC(C)(C)C2 [HS-10, 2-(((1r,4r)-4-hydroxycyclohexyl)amino)-4-(3,6,6-trimethyl-4-oxo-4,5,6,7-tetrahydro-1H-indazol-1-yl)benzamide, reference compound]
increase of the Tm of Hsp90 (Hsp90): 10.5 °C
Tm of Hsp90 in presence of compound (Hsp90; from 50° C. without compound): 60.5 °C
Hsp70 protein levels (Her2 and Akt): increased Hsp70 protein levels
Akt and Her2 expression (Her2 and Akt; BT474 breast cancer cells): induced degradation of Her2 and Akt

effect on Tm of Hsp70i (Hsp70i): does not change
effect on Tm of the ATP bound Hsp70i (Hsp70i; in presence of ATP): does not change
SMILES: CCCn1c(NC(=O)[C@@H]2CCCN(c3cnccn3)C2)nc2ccccc21 [HS-71, (R)—N-(1-propyl-1H-benzo[d]imidazol-2-yl)-1-(pyrazin-2-yl)piperidine-3-carboxamide]
cell proliferation (MCF7; MCF7, 24 hours): no effect on proliferation
cell proliferation (MCF7; MCF7, 48 hours at 25 uM and 50 uM): inhibition
cell proliferation, concentration with significant inhibition (MCF7; MCF7, 72 hours): 50 uM alone
cell proliferation (SkBr3; SkBr3, 48 and 72 hours at 25 uM and 50 uM): inhibition in proliferation
cell proliferation (SkBr3; SkBr3, 24 hours): no effect on proliferation

nucleotide concentration needed to release bound GFP-Hsp70i from the γ-linked ATP resin (GFP-Hsp70i): mM
increase of the Tm of Hsp70i (Hsp70i): 2.5 °C
SMILES: Nc1ncnc2c1ncn2[C@@H]1O[C@H](COP(=O)(O)OP(=O)(O)O)[C@@H](O)[C@H]1O [ADP, reference compound]
effect on Tm of Hsp70i (Hsp70i): increase the Tm of Hsp70i in a dose dependent manner

effect on Tm of Hsp70i (Hsp70i): increase
SMILES: N#Cc1ccc(COC[C@H]2O[C@@H](n3c(NCc4ccc(Cl)c(Cl)c4)nc4c(N)ncnc43)[C@H](O)[C@@H]2O)cc1 [VER, VER-15508, reference compound]

nucleotide concentration needed to release bound GFP-Hsp70i from the γ-linked ATP resin (GFP-Hsp70i): low μM
increase of the Tm of Hsp70i (Hsp70i): 3 °C
SMILES: Nc1ncnc2c1ncn2[C@@H]1O[C@H](COP(=O)(O)OP(=O)(O)OP(=O)(O)O)[C@@H](O)[C@H]1O [ATP, reference compound]
effect on Tm of Hsp70i (Hsp70i): increase the Tm of Hsp70i in a dose dependent manner
Hsp70 family members and Hsp90 eluted from the ATP resin [1]: All the Hsp70 family members and Hsp90 are eluted

effect on Tm of Hsp70i (Hsp70i): no dose dependent effect
SMILES: NS(=O)(=O)C#Cc1ccccc1 [PES, pifithrin-μ, reference compound]
